Where “and” joins values, the source holds several entries; their conditions need not be identical. Equal values may be shown once. Inconclusive results and toxic doses are left out. How the source made its calls: active means survival T/C of 150% or more; inactive means T/C below 125% in these data.
System: CD2F1 mice, L1210 leukemia ip, survival T/C
Assay: NCI In Vivo Anticancer Drug Screen. Data for tumor model L1210 Leukemia (intraperitoneal) in CD2F1 (CDF1) mice
Details: higher = longer survival
Procedure, shortened: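 Read-out first: treated-group measurement over vehicle-control measurement, expressed as a ratio. Animals bore a transplanted tumor line and were dosed with compound or vehicle.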

[1] = endpoint: mean survival time, dose: 12.5 mg/kg/injection, schedule: Q01DX001 (ip), vehicle: saline
[2] = endpoint: mean survival time, dose: 25.0 mg/kg/injection, schedule: Q01DX001 (ip), vehicle: saline
[3] = endpoint: mean survival time, dose: 100.0 mg/kg/injection, schedule: Q04DX003 (ip), vehicle: saline with Tween-80
[4] = endpoint: mean survival time, dose: 200.0 mg/kg/injection, schedule: Q04DX003 (ip), vehicle: saline with Tween-80
[5] = endpoint: mean survival time, dose: 400.0 mg/kg/injection, schedule: Q04DX003 (ip), vehicle: saline with Tween-80
[6] = endpoint: mean survival time, dose: 100.0 mg/kg/injection, schedule: Q01DX009 (ip), vehicle: saline with Tween-80
[7] = endpoint: mean survival time, dose: 200.0 mg/kg/injection, schedule: Q01DX009 (ip), vehicle: saline with Tween-80

Measured: T/C

CS(=O)(=O)OCCCCOS(C)(=O)=O
inactive: endpoint: mean survival time, dose: 3.75 mg/kg/injection, schedule: Q01DX009 (ip), vehicle: saline with Tween-80 92 % of control | endpoint: mean survival time, dose: 3.75 mg/kg/injection, schedule: Q03HX008 (ip), vehicle: saline with Tween-80 96 % of control | endpoint: mean survival time, dose: 3.75 mg/kg/injection, schedule: Q03HX016 (ip), vehicle: saline with Tween-80 94 % of control | endpoint: mean survival time, dose: 3.75 mg/kg/injection, schedule: Q03HX024 (ip), vehicle: saline with Tween-80 104 % of control | endpoint: mean survival time, dose: 7.5 mg/kg/injection, schedule: Q01DX009 (ip), vehicle: saline with Tween-80 102 % of control | endpoint: mean survival time, dose: 7.5 mg/kg/injection, schedule: Q03HX008 (ip), vehicle: saline with Tween-80 100 % of control | endpoint: mean survival time, dose: 7.5 mg/kg/injection, schedule: Q03HX016 (ip), vehicle: saline with Tween-80 98 % of control | endpoint: mean survival time, dose: 7.5 mg/kg/injection, schedule: Q03HX024 (ip), vehicle: saline with Tween-80 106 % of control | [1] 98 % of control | endpoint: mean survival time, dose: 15.0 mg/kg/injection, schedule: Q01DX009 (ip), vehicle: saline with Tween-80 97 % of control | endpoint: mean survival time, dose: 15.0 mg/kg/injection, schedule: Q01DX009 (oral), vehicle: saline with Tween-80 97 % of control | endpoint: mean survival time, dose: 15.0 mg/kg/injection, schedule: Q03HX008 (ip), vehicle: saline with Tween-80 102 % of control | endpoint: mean survival time, dose: 15.0 mg/kg/injection, schedule: Q03HX016 (ip), vehicle: saline with Tween-80 98 % of control | endpoint: mean survival time, dose: 15.0 mg/kg/injection, schedule: Q03HX024 (ip), vehicle: saline with Tween-80 103 % of control | [2] 102 % of control | endpoint: mean survival time, dose: 30.0 mg/kg/injection, schedule: Q01DX001 (ip), vehicle: saline with Tween-80 98 % of control | endpoint: mean survival time, dose: 30.0 mg/kg/injection, schedule: Q01DX009 (ip), vehicle: saline with Tween-80 100 % of control | endpoint: mean survival time, dose: 30.0 mg/kg/injection, schedule: Q01DX009 (oral), vehicle: saline with Tween-80 94 % of control | endpoint: mean survival time, dose: 30.0 mg/kg/injection, schedule: Q03HX008 (ip), vehicle: saline with Tween-80 107 % of control | endpoint: mean survival time, dose: 30.0 mg/kg/injection, schedule: Q03HX016 (ip), vehicle: saline with Tween-80 98 % of control | endpoint: mean survival time, dose: 30.0 mg/kg/injection, schedule: Q03HX024 (ip), vehicle: saline with Tween-80 107 % of control | endpoint: mean survival time, dose: 30.0 mg/kg/injection, schedule: Q04DX003 (ip), vehicle: saline with Tween-80 101 % of control | endpoint: mean survival time, dose: 30.0 mg/kg/injection, schedule: Q08DX002 (ip), vehicle: saline with Tween-80 98 % of control | endpoint: mean survival time, dose: 50.0 mg/kg/injection, schedule: Q01DX001 (ip), vehicle: saline 101 % of control | endpoint: mean survival time, dose: 60.0 mg/kg/injection, schedule: Q01DX001 (ip), vehicle: saline with Tween-80 104 % of control | endpoint: mean survival time, dose: 60.0 mg/kg/injection, schedule: Q01DX001 (oral), vehicle: saline with Tween-80 100 % of control | endpoint: mean survival time, dose: 60.0 mg/kg/injection, schedule: Q04DX003 (ip), vehicle: saline with Tween-80 96 % of control | endpoint: mean survival time, dose: 60.0 mg/kg/injection, schedule: Q08DX002 (ip), vehicle: saline with Tween-80 98 % of control | endpoint: mean survival time, dose: 100.0 mg/kg/injection, schedule: Q01DX001 (ip), vehicle: saline 112 % of control | endpoint: mean survival time, dose: 120.0 mg/kg/injection, schedule: Q01DX001 (ip), vehicle: saline with Tween-80 104 % of control | endpoint: mean survival time, dose: 120.0 mg/kg/injection, schedule: Q08DX002 (ip), vehicle: saline with Tween-80 97 % of control | endpoint: mean survival time, dose: 240.0 mg/kg/injection, schedule: Q08DX002 (ip), vehicle: saline with Tween-80 100 % of control

COc1ccc(OC)c2c1CC(C(C)=O)CC2=O (stereo not given)
inactive: endpoint: mean survival time, dose: 12.5 mg/kg/injection, schedule: Q01DX009 (ip), vehicle: water 98 % of control | endpoint: mean survival time, dose: 25.0 mg/kg/injection, schedule: Q01DX009 (ip), vehicle: water 102 % of control | endpoint: mean survival time, dose: 50.0 mg/kg/injection, schedule: Q01DX009 (ip), vehicle: water 106 % of control | endpoint: mean survival time, dose: 100.0 mg/kg/injection, schedule: Q01DX009 (ip), vehicle: water 100 % of control | endpoint: mean survival time, dose: 200.0 mg/kg/injection, schedule: Q01DX009 (ip), vehicle: water 92 % of control

CCCCCCCCCCCC(=O)N(CCCC)CCCC
inactive: endpoint: mean survival time, dose: 100.0 mg/kg/injection, schedule: Q04DX002 (ip), vehicle: saline 103 % of control | endpoint: mean survival time, dose: 200.0 mg/kg/injection, schedule: Q04DX002 (ip), vehicle: saline 103 % of control | endpoint: mean survival time, dose: 400.0 mg/kg/injection, schedule: Q04DX002 (ip), vehicle: saline 106 % of control

O=C1OC(=O)c2ccccc21
inactive: endpoint: mean survival time, dose: 25.0 mg/kg/injection, schedule: Q01DX009 (ip), vehicle: Klucel (hydroxypropylcellulose) (HPC) 91 % of control | endpoint: mean survival time, dose: 50.0 mg/kg/injection, schedule: Q01DX009 (ip), vehicle: Klucel (hydroxypropylcellulose) (HPC) 95 % of control | endpoint: mean survival time, dose: 100.0 mg/kg/injection, schedule: Q01DX009 (ip), vehicle: Klucel (hydroxypropylcellulose) (HPC) 95 % of control

CC12CCC(=O)C=C1CCC1C2C(=O)CC2(C)C1CCC2(O)C(=O)Cn1c(=O)cc[nH]c1=O (stereo not given)
inactive: endpoint: mean survival time, dose: 12.5 mg/kg/injection, schedule: Q04DX003 (ip), vehicle: Klucel (hydroxypropylcellulose) (HPC) 96 % of control | endpoint: mean survival time, dose: 25.0 mg/kg/injection, schedule: Q04DX003 (ip), vehicle: Klucel (hydroxypropylcellulose) (HPC) 96 % of control | endpoint: mean survival time, dose: 50.0 mg/kg/injection, schedule: Q04DX003 (ip), vehicle: Klucel (hydroxypropylcellulose) (HPC) 103 % of control | endpoint: mean survival time, dose: 100.0 mg/kg/injection, schedule: Q04DX003 (ip), vehicle: Klucel (hydroxypropylcellulose) (HPC) 97 % of control | endpoint: mean survival time, dose: 200.0 mg/kg/injection, schedule: Q04DX003 (ip), vehicle: Klucel (hydroxypropylcellulose) (HPC) 97 % of control

CCCCCCCCCCCCSS(=O)(=O)c1ccc(C)cc1
inactive: endpoint: mean survival time, dose: 100.0 mg/kg/injection, schedule: Q04DX003 (ip), vehicle: other 95 % of control | endpoint: mean survival time, dose: 200.0 mg/kg/injection, schedule: Q04DX003 (ip), vehicle: other 95 % of control | endpoint: mean survival time, dose: 400.0 mg/kg/injection, schedule: Q04DX003 (ip), vehicle: other 95 % of control

CCCCOc1ccc(/C=N\N=C\c2ccc(OCCCC)cc2)cc1
inactive: [3] 88 % of control | [4] 91 % of control | [5] 86 % of control

Cc1ccnc(N)c1.[Cl-].[Cl-].[Cl-].[Cl-].[Pt+2]
inactive: endpoint: mean survival time, dose: 25.0 mg/kg/injection, schedule: Q04DX003 (ip), vehicle: saline with Tween-80 106 % of control | endpoint: mean survival time, dose: 50.0 mg/kg/injection, schedule: Q04DX003 (ip), vehicle: saline with Tween-80 101 % of control

Cc1c(Cl)c(C)c(Cl)c(C)c1Cl
inactive: [3] 101 % of control | [4] 96 % of control | [5] 101 % of control

CC(C)c1ccccc1OS(=O)(=O)c1cccc([N+](=O)[O-])c1
inactive: [6] 98 % of control | [3] 100 % of control | [7] 100 % of control | [4] 99 % of control | endpoint: mean survival time, dose: 400.0 mg/kg/injection, schedule: Q01DX009 (ip), vehicle: saline with Tween-80 100 % of control | [5] 106 % of control

Cc1c2ccccc2cc2c1ccc1cccc(F)c12
inactive: endpoint: median survival time, dose: 12.5 mg/kg/injection, schedule: Q04DX003 (ip), vehicle: saline with Tween-80 100 % of control | endpoint: median survival time, dose: 25.0 mg/kg/injection, schedule: Q04DX003 (ip), vehicle: saline with Tween-80 100 % of control | endpoint: median survival time, dose: 50.0 mg/kg/injection, schedule: Q04DX003 (ip), vehicle: saline with Tween-80 100 % of control

Brc1c(NC2=NCCN2)ccc2nccnc12
inactive: endpoint: median survival time, dose: 1.56 mg/kg/injection, schedule: Q01DX009 (ip), vehicle: saline 102 % of control | endpoint: median survival time, dose: 3.12 mg/kg/injection, schedule: Q01DX009 (ip), vehicle: saline 96 % of control and 111 % of control | endpoint: median survival time, dose: 6.25 mg/kg/injection, schedule: Q01DX009 (ip), vehicle: saline 115 % of control and 119 % of control and 109 % of control | endpoint: median survival time, dose: 100.0 mg/kg/injection, schedule: Q01DX009 (ip), vehicle: saline 118 % of control

CC1(C)CC(NC2=NCCO2)CC(C)(C)N1
inactive: endpoint: mean survival time, dose: 6.25 mg/kg/injection, schedule: Q01DX001 (ip), vehicle: saline 94 % of control | endpoint: mean survival time, dose: 6.25 mg/kg/injection, schedule: Q01DX009 (ip), vehicle: saline 101 % of control | [1] 97 % of control | endpoint: mean survival time, dose: 12.5 mg/kg/injection, schedule: Q01DX009 (ip), vehicle: saline 98 % of control | [2] 90 % of control | endpoint: mean survival time, dose: 25.0 mg/kg/injection, schedule: Q01DX009 (ip), vehicle: saline 96 % of control

COc1ccc(C(Br)C(C)Br)cc1 (stereo not given)
inactive: endpoint: mean survival time, dose: 50.0 mg/kg/injection, schedule: Q01DX009 (ip), vehicle: saline with Tween-80 97 % of control | [6] 94 % of control | [3] 98 % of control | [7] 97 % of control | [4] 98 % of control

NC(N)=NC(N)=Nc1ccc(Cl)cc1
inactive: [6] 104 % of control | [7] 106 % of control

From PubChem BioAssay AID256 (DTP/NCI, 2004)
